Experimental findings from PubChem BioAssay (NCI) are described below.

Where “and” joins values, the source holds several entries; their conditions need not be identical. Equal entries are not always repeated.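 Five concentrations, 48 hours, 96-well plates. GI50: concentration for 50% inhibition of growth. At the TGI there is no net growth.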

Some test systems named below: HOP-18 NSCLC; RXF-631 renal; LXFL 529 NSCLC; DMS 114 small cell lung; M19-MEL melanoma; KM20L2 colon; DMS 273 small cell lung; SNB-78 CNS; P388/ADR leukemia; MDA-N.
Holding throughout (test): NCI tumour cell line growth inhibition, 48 h

As to `CC(=O)OC1(C(C)=O)CC2(c3ccccc3)OC1(c1ccccc1)c1ccccc12` (centres undefined), the TGI in the experiment with HOP-18 NSCLC is above 100 µM; in the experiment with RXF-631 renal, above 100 µM; in the experiment with LXFL 529 NSCLC, above 100 µM; in the experiment with DMS 114 small cell lung, 12.5 µM; in the experiment with M19-MEL melanoma, 80.4 µM; in the experiment on KM20L2 colon it was above 100 µM. Besides, the TGI with DMS 273 small cell lung is 22.2 µM; with SNB-78 CNS it was above 100 µM.

For `COc1cc(O)c(C(=O)C2Cc3ccccc32)c(OC)c1` (centres undefined), the TGI in the experiment on HOP-18 NSCLC was above 100 µM; with RXF-631 renal, above 100 µM; with LXFL 529 NSCLC it was above 100 µM; in the experiment on DMS 114 small cell lung, 97.2 µM; in the experiment on KM20L2 colon, above 100 µM; with DMS 273 small cell lung, above 100 µM. In the experiment with SNB-78 CNS, this molecule registered a TGI above 100 µM.

As for `C=C1C(C)C2C(Cc3ccccc3)NC(=O)C23C(OC(C)=O)C=CC(C)(O)C(=O)C(C)C/C=C/C3C1O` (centres undefined), the GI50 with HOP-18 NSCLC is 0.0404 µM and 0.05 µM; with DMS 114 small cell lung, 11.1 µM; with M19-MEL melanoma, 57.3 µM; with KM20L2 colon it was 0.275 µM; in the experiment with DMS 273 small cell lung, 0.05 µM; in the experiment on MDA-N, 1.75 µM. In addition, the TGI was 1.09 µM and 0.117 µM with HOP-18 NSCLC; 96.4 µM in the experiment with LXFL 529 NSCLC; 65.6 µM and > 500 µM in the experiment on DMS 114 small cell lung; 93.4 µM and > 500 µM with M19-MEL melanoma; 99.2 µM and > 500 µM in the experiment on KM20L2 colon; 73.9 µM and > 500 µM with DMS 273 small cell lung. The TGI in the experiment with SNB-78 CNS is 1.55 µM; in the experiment with P388/ADR leukemia it was 90.3 µM; in the experiment on MDA-N, 21.4 µM and > 162 µM.

Regarding `CC1OC(O[C@@H]2C=C3CC[C@@H]4[C@H](CC[C@]5(C)[C@@H](c6ccc(=O)oc6)CC[C@]45O)[C@@]3(C)CC2)C(O)C(O)C1O` (some centres undefined), the GI50 in the experiment on M19-MEL melanoma was 0.00173 µM; in the experiment with KM20L2 colon, 0.00131 µM; with DMS 273 small cell lung, 0.000892 µM; in the experiment on SNB-78 CNS, 0.000596 µM. Also, the TGI with DMS 273 small cell lung is 0.003 µM; in the experiment on SNB-78 CNS it was 0.003 µM; in the experiment with P388/ADR leukemia it was 159 µM.

Turning to `O=C1N(c2ccc(Cl)cc2)C(=O)C2(SC=NN2Cc2ccccc2)N1c1ccc(Cl)cc1` (centres undefined), the TGI in the experiment on HOP-18 NSCLC, in the experiment on RXF-631 renal, in the experiment on LXFL 529 NSCLC, with DMS 114 small cell lung, in the experiment on M19-MEL melanoma and with KM20L2 colon was above 100 µM throughout. Also, the TGI in the experiment on SNB-78 CNS is above 100 µM.
